According to patent publication US20140112886A1, “DINUCLEOTIDE COMPOUNDS FOR HCV INFECTION” (IDENIX PHARMACEUTICALS, INC., priority 2012, published 2014):

Key:
HCV genotype 1b replicon = test: microbe, parasite or virus in culture; assay type: cell-based; settings: Hepatitis C virus, 72 h, read-out: HCV Replicon EC50
in vitro = settings: human
[1] = Cytotoxicity evaluation, CellTiter-Blue Cell Viability Assay; settings: human, Zluc cells (HCV replicon cells)

CCOc1nc(N)nc2c1ncn2[C@@H]1O[C@@H]2COP(=O)(Oc3cccc(OP4(=O)OC[C@H]5O[C@@H](n6ccc(OC)nc6=O)[C@](C)(F)[C@@H]5O4)c3)O[C@H]2[C@@]1(C)F (stereo partly shown) [Compound 10]
EC50 (HCV genotype 1b replicon): < 0.25 µM
CC50 (in vitro): > 50 µM

CCOc1nc(N)nc2c1ncn2[C@@H]1O[C@@H]2COP(=O)(Oc3cccc(OP4(=O)OC[C@H]5O[C@@H](n6ccc(=O)[nH]c6=O)[C@](C)(F)[C@@H]5O4)c3)O[C@H]2[C@@]1(C)F (stereo partly shown) [Compound 8]
EC50 (HCV genotype 1b replicon): < 0.25 µM
CC50 (in vitro): > 50 µM

CCOc1nc(N)nc2c1ncn2[C@@H]1O[C@H](COP(=O)(Oc2ccccc2)N2CCN(P(=O)(OC[C@H]3O[C@@H](n4cnc5c(OC)nc(N)nc54)[C@](C)(O)[C@@H]3O)Oc3ccccc3)CC2)[C@@H](O)[C@@]1(C)F (stereo partly shown) [Compound 4]
EC50 (HCV genotype 1b replicon): > 10 µM
CC50 (in vitro): > 50 µM

CCOc1nc(N)nc2c1ncn2[C@@H]1O[C@@H]2COP(=O)(Oc3cccc(OP4(=O)OC[C@H]5O[C@@H](n6cnc7c(OCC)nc(N)nc76)[C@](C)(F)[C@@H]5O4)c3)O[C@H]2[C@@]1(C)O (stereo partly shown) [Compound 9]
EC50 (HCV genotype 1b replicon): < 0.25 µM
CC50 (in vitro): > 50 µM

CCOc1nc(N)nc2c1ncn2[C@@H]1O[C@@H]2COP(=O)(NCCNP3(=O)OC[C@H]4O[C@@H](n5cnc6c(OCC)nc(N)nc65)[C@](C)(F)[C@@H]4O3)O[C@H]2[C@@]1(C)F (mixture of isomers) [Compound 3]
EC50 (HCV genotype 1b replicon): 1 to 10 µM
CC50 at 72 h [1]: > 50 µM

CCOc1nc(N)nc2c1ncn2[C@@H]1O[C@@H]2COP(=O)(Oc3cccc(OP4(=O)OC[C@H]5O[C@@H](n6cnc7c(OCC)nc(N)nc76)[C@](C)(O)[C@@H]5O4)c3)O[C@H]2[C@@]1(C)O (stereo partly shown) [Compound 12]
EC50 (HCV genotype 1b replicon): 0.25 to 1 µM
CC50 (in vitro): > 50 µM

CCOc1nc(N)nc2c1ncn2[C@@H]1O[C@@H]2COP(=O)(OC3CCC(OP4(=O)OC[C@H]5O[C@@H](n6cnc7c(OCC)nc(N)nc76)[C@](C)(F)[C@@H]5O4)CC3)O[C@H]2[C@@]1(C)F (stereo partly shown) [Compound 13]
EC50 (HCV genotype 1b replicon): 1 to 10 µM
CC50 (in vitro): > 50 µM

COc1nc(N)nc2c1ncn2[C@@H]1O[C@H](COP(=O)(NCCNP(=O)(OC[C@H]2O[C@@H](n3cnc4c(OC)nc(N)nc43)[C@](C)(O)[C@@H]2O)Oc2ccccc2)Oc2ccccc2)[C@@H](O)[C@@]1(C)O (stereo partly shown) [Compound 6]
EC50 (HCV genotype 1b replicon): > 10 µM
CC50 (in vitro): > 50 µM

CCOc1nc(N)nc2c1ncn2[C@@H]1OC(COP2(=O)OCC3(CO2)COP(=O)(OCC2O[C@@H](n4cnc5c(OCC)nc(N)nc54)[C@](C)(F)[C@@H]2O)OC3)[C@@H](O)[C@@]1(C)F (stereo partly shown) [Compound 7]
EC50 (HCV genotype 1b replicon): > 10 µM
CC50 (in vitro): > 50 µM

CCOc1nc(N)nc2c1ncn2[C@@H]1O[C@@H]2COP(=O)(NCCCCCCNP3(=O)OC[C@H]4O[C@@H](n5cnc6c(OCC)nc(N)nc65)[C@](C)(F)[C@@H]4O3)O[C@H]2[C@@]1(C)F (stereo partly shown) [Compound 14]
EC50 (HCV genotype 1b replicon): 1 to 10 µM
CC50 at 72 h [1]: > 50 µM

CCOc1nc(N)nc2c1ncn2[C@@H]1O[C@H](COP(=O)(NCCNP(=O)(OC[C@H]2O[C@@H](n3cnc4c(OC)nc(N)nc43)[C@](C)(O)[C@@H]2O)Oc2ccccc2)Oc2ccccc2)[C@@H](O)[C@@]1(C)F (stereo partly shown) [Compound 5]
EC50 (HCV genotype 1b replicon): > 10 µM
CC50 (in vitro): > 50 µM
